Patent US6414153B1, “1-phenylpydrrolidin-2-ones and -thiones and 1-(4-pyridyl)pydrrolidin-2-ones and -thiones which are useful in the treatment of inflammatory disease” (Boehringer Ingelheim Pharmaceuticals, Inc., priority 1999, dated 2002)

Experiments:
[1] = molecular target: T1, LFA-1 (CD18/CD11a) binding to ICAM-1 (Homo sapiens, UniProt P05107+P20701); assay: Assay to Determine Inhibition of LFA-1 Binding to ICAM-1; conditions: immunoaffinity purified LFA-1 on plate-bound sICAM-1, 37° C. for 1 h, dose-response curve
T1 construct: endogenous in cells; host or cells: LFA-1: endogenous, immunopurified from human JY or SKW3 cell lysates. sICAM-1: made in house, secreted from transfected CHO DUX cells
T1 sequence (P20701 26-1170): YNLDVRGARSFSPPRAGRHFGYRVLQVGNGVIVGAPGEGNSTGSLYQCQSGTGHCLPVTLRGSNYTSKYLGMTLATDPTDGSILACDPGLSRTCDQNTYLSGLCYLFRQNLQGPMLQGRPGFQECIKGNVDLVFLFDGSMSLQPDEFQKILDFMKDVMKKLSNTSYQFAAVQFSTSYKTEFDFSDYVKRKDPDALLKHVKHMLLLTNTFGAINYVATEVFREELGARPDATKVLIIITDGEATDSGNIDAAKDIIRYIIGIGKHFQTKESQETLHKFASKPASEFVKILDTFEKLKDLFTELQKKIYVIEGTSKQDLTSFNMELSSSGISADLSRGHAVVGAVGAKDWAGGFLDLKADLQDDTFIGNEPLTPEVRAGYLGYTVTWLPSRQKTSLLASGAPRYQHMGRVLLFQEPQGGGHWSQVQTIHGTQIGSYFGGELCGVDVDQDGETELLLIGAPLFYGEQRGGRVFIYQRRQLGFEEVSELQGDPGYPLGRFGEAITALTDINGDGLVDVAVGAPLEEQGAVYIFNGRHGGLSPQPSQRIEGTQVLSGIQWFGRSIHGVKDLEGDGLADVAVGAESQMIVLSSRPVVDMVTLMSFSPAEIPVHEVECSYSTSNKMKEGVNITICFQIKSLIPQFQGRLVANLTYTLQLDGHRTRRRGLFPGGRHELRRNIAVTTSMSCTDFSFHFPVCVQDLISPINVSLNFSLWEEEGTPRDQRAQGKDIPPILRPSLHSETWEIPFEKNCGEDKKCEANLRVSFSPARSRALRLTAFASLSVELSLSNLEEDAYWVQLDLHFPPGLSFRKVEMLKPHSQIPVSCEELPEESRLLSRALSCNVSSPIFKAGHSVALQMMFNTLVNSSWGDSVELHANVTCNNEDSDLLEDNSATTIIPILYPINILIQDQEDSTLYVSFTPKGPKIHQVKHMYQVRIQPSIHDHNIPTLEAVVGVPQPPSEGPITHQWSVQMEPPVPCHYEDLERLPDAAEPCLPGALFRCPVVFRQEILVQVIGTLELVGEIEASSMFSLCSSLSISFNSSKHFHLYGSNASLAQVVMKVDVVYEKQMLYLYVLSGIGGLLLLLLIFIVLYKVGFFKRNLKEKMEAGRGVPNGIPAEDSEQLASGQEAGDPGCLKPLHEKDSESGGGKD
T1 sequence (P05107 23-769): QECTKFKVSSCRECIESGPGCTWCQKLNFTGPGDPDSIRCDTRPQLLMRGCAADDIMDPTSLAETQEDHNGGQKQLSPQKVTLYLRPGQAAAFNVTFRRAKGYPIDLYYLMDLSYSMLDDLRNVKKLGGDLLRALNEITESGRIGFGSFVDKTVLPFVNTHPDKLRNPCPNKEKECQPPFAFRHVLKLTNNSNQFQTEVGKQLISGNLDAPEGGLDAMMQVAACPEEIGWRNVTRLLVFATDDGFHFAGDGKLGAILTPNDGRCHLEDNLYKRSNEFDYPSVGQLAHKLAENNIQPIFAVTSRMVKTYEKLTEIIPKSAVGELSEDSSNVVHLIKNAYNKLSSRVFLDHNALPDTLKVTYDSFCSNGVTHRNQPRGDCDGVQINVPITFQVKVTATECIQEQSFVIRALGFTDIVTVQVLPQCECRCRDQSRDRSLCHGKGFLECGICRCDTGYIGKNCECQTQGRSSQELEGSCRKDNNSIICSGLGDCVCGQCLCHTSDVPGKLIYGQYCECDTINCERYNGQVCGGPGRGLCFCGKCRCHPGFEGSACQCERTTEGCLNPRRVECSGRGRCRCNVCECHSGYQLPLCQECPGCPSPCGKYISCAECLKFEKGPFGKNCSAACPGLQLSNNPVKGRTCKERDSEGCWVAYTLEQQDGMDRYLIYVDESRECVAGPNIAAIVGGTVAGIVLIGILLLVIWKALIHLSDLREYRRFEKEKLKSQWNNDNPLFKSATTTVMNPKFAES
From the text: This assay protocol is designed to study the direct antagonism, by a test compound, of the interaction of the CAM, ICAM-1 with the Leukointegrin CD18/CD11a (LFA-1).
After collection and neutralization of fractions from the TS2/4 column, samples are pooled and precleared with Protein G agarose.
An expression vector is created with a hamster dihydrofolate reductase gene, a neomycin-resistance marker, and the coding region of the sICAM-1 construct described above, along with the promoter, splice signals, and polyadenylation signal of the SV40 early region. The recombinant plasmid is transfected into CHO DUX cells using standard calcium phosphate methods. Cells are passaged in selective media (G418) and colonies secreting sICAM-1 are amplified using methotrexate. sICAM-1 is purified from serum-free media using traditional non-affinity chromatographic techniques, including ion exchange and size exclusion chromatography.
LFA-1 binding to ICAM-1 is monitored by first incubating sICAM-1 at 40 μg/mL in Dulbecco's phosphate buffered saline with calcium and magnesium, additional 2 mM MgCl2 and 0.1 mM PMSF (Diluting Buffer) in a 96-well plate for 30 min at room temperature. Plates are then blocked by the addition of 2% (w/v) bovine serum albumin in Diluting Buffer for 37° C. for 1 h. Blocking solution is removed from wells, and test compounds are diluted and then added followed by the addition of approximately 25 ng of immunoaffinity purified LFA-1. The LFA-1 is incubated in the presence of test compound and ICAM-1 at 37° C. for 1 h. Wells are washed 3 times with Diluting Buffer. The bound LFA-1 is detected by the addition of a polyclonal antibody directed against a peptide corresponding to the CD18 cytoplasmic tail in a 1:100 dilution with Diluting Buffer and 1% BSA and allowed to incubate for 45 min at 37° C. Wells are washed 3 times with Diluting Buffer and the bound polyclonal antibody is detected by the addition of a 1:4000 dilution of horse radish peroxidase conjugated to goat immunoglobulin directed against rabbit immunoglobulin. This reagent is allowed to incubate for 20 min at 37° C., wells are washed as above and the substrate for the horse radish peroxidase is added to each well to develop a quantitative colorimetric signal proportional to the amount of LFA-1 bound to sICAM-1. […] The lack of the addition of LFA-1 to the binding assay is used as a background control for all samples. A dose-response curve is obtained for all test compounds.

Row | SMILES | Kd [1] [nM] | melting point [°C]
1 | COc1cccc2c1C(Cc1cccc(Br)c1)C(=O)N2c1cc(Cl)cc(Cl)c1 (centres unmarked) [Example 10, 3-(3-bromobenzyl)-1-(3,5-dichlorophenyl)-4-methoxy-1,3-dihydroindol-2-one] | 1080 | 142 to 144
2 | O=C1C(Cc2ccc(Br)cc2)c2c(O)cccc2N1c1cc(Cl)cc(Cl)c1 (centres unmarked) [Example 17, 3-(4-bromobenzyl)-1-(3,5-dichlorophenyl)-4-hydroxy-1,3-dihydroindol-2-one] | 917 | 203 to 208
3 | CC1(Cc2ccc(Br)cc2)C(=O)N(c2cc(Cl)cc(Cl)c2)c2ccccc21 (centres unmarked) [Example 2, 3-(4-Bromobenzyl)-1-(3,5-dichlorophenyl)-3-methyl-1,3-dihydro-indol-2-one] | > 10000 | 
4 | O=C1C(Cc2ccccc2)c2ccccc2N1c1cc(Cl)cc(Cl)c1 (centres unmarked) [Example 15, 3-benzyl-1-(3,5-dichlorophenyl)-1,3-dihydroindol-2-one] | 4970 | 109 to 111
5 | COc1ccc2c(c1)C(Cc1ccccc1)C(=O)N2c1cc(Cl)cc(Cl)c1 (centres unmarked) [Example 13, 3-benzyl-1-(3,5-dichlorophenyl)-5-methoxy-1,3-dihydroindol-2-one] | > 10000 | 118 to 119
6 | CC1(Cc2ccc(Br)cc2)C(=O)N(c2cc(Cl)cc(Cl)c2)c2ncccc21 (centres unmarked) [Example 3, 3-(4-Bromobenzyl)-1-(3,5-dichlorophenyl)-3-methyl-1,3-dihydropyrrolo[2,3-b]pyridin-2-one] | 375 | 
7 | O=C1C(Cc2ccc(Br)cc2)c2ccccc2N1c1cc(Cl)cc(Cl)c1 (centres unmarked) [Example 1, 3-(4-Bromobenzyl)-1-(3,5-dichlorophenyl)-1,3-dihydroindol-2-one] | > 10000 | 139 to 142
8 | O=C1C(Cc2ccccc2)c2c(O)cccc2N1c1cc(Cl)cc(Cl)c1 (centres unmarked) [Example 12, 3-benzyl-1-(3,5-dichlorophenyl)-4-hydroxy-1,3-dihydroindol-2-one] | 1310 | 181 to 185
9 | COc1cccc2c1C(Cc1ccccc1)C(=O)N2c1cc(Cl)cc(Cl)c1 (centres unmarked) [Example 9, 3-benzyl-1-(3,5-dichlorophenyl)-4-methoxy-1,3-dihydroindol-2-one] | 705 | 138 to 140
10 | O=C1C(Cc2ccc(Br)cc2)c2cc(F)ccc2N1c1cc(Cl)cc(Cl)c1 (centres unmarked) [Example 7, 3-(4-bromobenzyl)-1-(3,5-dichlorophenyl)-5-fluoro-1,3-dihydroindol-2-one] | 2710 | 178 to 179
11 | CC1(Cc2cccc(Br)c2)C(=O)N(c2cc(Cl)cc(Cl)c2)c2cccc(O)c21 (centres unmarked) [Example 11, 3-(3-bromobenzyl)-1-(3,5-dichlorophenyl)-4-hydroxy-3-methyl-1,3-dihydroindol-2-one] | 2540 | 225 to 227
12 | CC1(Cc2ccc(Br)cc2)C(=O)N(c2cc(Cl)cc(Cl)c2)c2cccc(O)c21 (centres unmarked) [Example 6, 3-(4-bromobenzyl)-1-(3,5-dichlorophenyl)-4-hydroxy-3-methyl-1,3-dihydroindol-2-one] | 1790 | 225 to 227
13 | CC1(Cc2ccc(C#N)cc2)C(=O)N(c2cc(Cl)cc(Cl)c2)c2ncccc21 (centres unmarked) [Example 5, 3-(4-cyanobenzyl)-1-(3,5-dichlorophenyl)-3-methyl-1,3-dihydropyrrolo[2,3-b]pyridin-2-one] | 3530 | 
14 | O=C1C(Cc2ccccc2)c2cc(O)ccc2N1c1cc(Cl)cc(Cl)c1 (centres unmarked) [Example 14, 3-benzyl-1-(3,5-dichlorophenyl)-5-hydroxy-1,3-dihydroindol-2-one] | > 10000 | 232 to 235
15 | CC1(Cc2ccccc2)C(=O)N(c2cc(Cl)cc(Cl)c2)c2cccc(O)c21 (centres unmarked) [Example 16, 3-benzyl-1-(3,5-dichlorophenyl)-4-hydroxy-3-methyl-1,3-dihydroindol-2-one] | 1440 | 165 to 166.5
16 | O=C(O)c1ccc2c(c1)N(c1cc(Cl)cc(Cl)c1)C(=O)C2Cc1ccc(Br)cc1 (centres unmarked) [Example 8, 3-(4-bromobenzyl)-1-(3,5-dichlorophenyl)-1,3-dihydroindol-2-one-6-carboxylic acid] | 4890 | 264 to 266
